Experimental data taken from ChEMBL document CHEMBL3867473, “The comparison of neuroprotective effects of isoliquiritigenin and its Phase I metabolites against glutamate-induced HT22 cell death” (2016).
The source made the active and inactive calls. No cut-off for these calls is given here.

How the values were obtained:
[1] = Neuroprotective activity against glutamate-induced cell death in mouse HT22 cells assessed as cell viability at 10 uM pretreated for 12 hrs prior to glutamate-challenge measured after 12 hrs by MTT assay (reference value: 43.35 +/- 1.48%); format: functional; details: HT-22, read-out: Activity
[2] = molecular target: MAP kinase p38 (Mus musculus) (UniProt P47811+O08911+Q9WUI1+Q9Z1B7); assay: Inhibition of glutamate-induced increase in p38 phosphorylation in mouse HT22 cells at 5 uM pretreated for 12 hrs followed by glutamate-challenge measured after 12 hrs by Western blotting assay (reference value: 2.46 +/- 0.96); format: cell-based; details: HT-22
HT-22 [3] = assay: Neuroprotective activity in mouse HT22 cells assessed as decrease in glutamate-induced reduction of full-length Bid level at 5 uM pretreated for 12 hrs prior to glutamate-challenge measured after 12 hrs by Western blotting assay; format: functional, cell-based
HT-22 [4] = assay: Inhibition of glutamate-induced increase in ERK phosphorylation in mouse HT22 cells at 5 uM pretreated for 12 hrs followed by glutamate-challenge measured after 12 hrs by Western blotting assay (reference value: 3.01 +/- 0.3); format: cell-based
HT-22 [5] = assay: Inhibition of glutamate-induced increase in JNK phosphorylation in mouse HT22 cells at 5 uM pretreated for 12 hrs followed by glutamate-challenge measured after 12 hrs by Western blotting assay (reference value: 1.84 +/- 0.11); format: cell-based
HT-22 [6] = assay: Neuroprotective activity against glutamate-induced oxidative stress in mouse HT22 cells assessed as ROS level at 5 uM pretreated for 12 hrs prior to glutamate-challenge measured after 12 hrs (reference value: 241.63 +/- 7.98%); format: functional
HT-22 [7] = assay: Neuroprotective activity in mouse HT22 cells assessed as decrease of glutamate-induced ROS production at 5 uM pretreated for 12 hrs prior to glutamate-challenge measured after 12 hrs by CM-H2CDFDA staining-based flow cytometry (reference value: 3.95 +/- 0.01); format: functional
HT-22 [8] = assay: Neuroprotective activity in mouse HT22 cells assessed as decrease in glutamate-induced reduction of full-length Bid level at 5 uM pretreated for 12 hrs prior to glutamate-challenge measured after 12 hrs by Western blotting assay (reference value: 0.9 +/- 0.05); format: functional
HT-22 [9] = assay: Neuroprotective activity against glutamate-induced oxidative stress in mouse HT22 cells assessed as ROS level at 10 uM pretreated for 12 hrs prior to glutamate-challenge measured after 12 hrs (reference value: 241.63 +/- 7.98%); format: functional
HT-22 [10] = assay: Neuroprotective activity in mouse HT22 cells assessed as decrease of glutamate-induced ROS production at 10 uM pretreated for 12 hrs prior to glutamate-challenge measured after 12 hrs by CM-H2CDFDA staining-based flow cytometry (reference value: 3.95 +/- 0.01); format: functional

Structure (SMILES)	viability at 10 µM [1] [%]	fold change (FC) [2]	Activity (HT-22 [3])	fold change (FC) (HT-22 [4])	fold change (FC) (HT-22 [5])	Activity (HT-22 [6]) [%]	fold change (FC) (HT-22 [7])	fold change (FC) (HT-22 [8])	Activity (HT-22 [9]) [%]	fold change (FC) (HT-22 [10])
O=C(/C=C/c1ccc(O)cc1)c1cc(O)c(O)cc1O	83.5	1.21	Active	1.64	1.08	137.94	2.39	–	–	–
O=C(/C=C/c1ccc(O)c(O)c1)c1ccc(O)cc1O [BUTEIN]	92.5	0.75	–	1.49	0.73	59.79	0.69	1.22	–	–
O=C(/C=C/c1ccc(O)cc1)c1ccc(O)cc1O [ISOLIQUIRITIGENIN]	78.9	1.03	–	0.8	1	96.19	1.44	0.94	–	–
O=c1c(O)c(-c2ccc(O)c(O)c2)oc2cc(O)cc(O)c12 [QUERCETIN]	93.7	–	–	0.77	–	–	–	1.16	53.84	0.79
O=C1/C(=C/c2ccc(O)c(O)c2)Oc2cc(O)ccc21 [SULFURETIN]	93.7	1.09	Active	2.02	0.72	102.25	1.82	–	–	–
